Test: Inhibition of Human immunodeficiency virus integrase

Question: For `Cc1ccc2c(O)c(C(=O)O)ccc2n1`, which IC50 is on record?
Answer: Its IC50 is 47 µM.

Question: With `CC(=O)NC1=CC(=O)c2ccc(C)nc2C1=O` as the molecule, how does the IC50 read?
Answer: The IC50 was 77 µM.

Question: Which IC50 does the source give for `Cc1ccc2ccc(C(=O)O)c(O)c2n1` here?
Answer: Its IC50 is > 100 µM.
